Data reported in patent publication US20140135357A1, “DOSE REGIME FOR CAMPTOTHECIN DERIVATIVES” (Taiwan Liposome Company, Ltd., priority 2012, published 2014).

Experiment: Phase I clinical trial: pharmacokinetic analysis of TLC388HCl diastereomers and metabolites after IV infusion
Details: for difference between PK profiles on Day 1 and Day 8: Cycle 1; for half-life: plasma, after IV administration of TLC388HCl composition
[1] = Day 1, dose group 1.5 mg/m^2 TLC388HCl, Mean (SD)
[2] = Day 1, dose group 3.0 mg/m^2 TLC388HCl, Mean (SD)
[3] = Day 1, dose group 6.0 mg/m^2 TLC388HCl, Mean (SD)
[4] = Day 1, dose group 9.0 mg/m^2 TLC388HCl, Mean (SD)
[5] = Day 1, dose group 20.0 mg/m^2 TLC388HCl, Mean (SD)
[6] = Day 1, dose group 30.0 mg/m^2 TLC388HCl, Mean (SD)
[7] = Day 1, dose group 35.0 mg/m^2 TLC388HCl, Mean (SD)
[8] = Day 1, dose group 40.0 mg/m^2 TLC388HCl, Mean (SD)
[9] = Day 1, dose group 50.0 mg/m^2 TLC388HCl, Mean (SD)
[10] = Day 1, dose group 60.0 mg/m^2 TLC388HCl, Mean (SD)
[11] = Day 8, dose group 1.5 mg/m^2 TLC388HCl, Mean (SD)
[12] = Day 8, dose group 3.0 mg/m^2 TLC388HCl, Mean (SD)
[13] = Day 8, dose group 6.0 mg/m^2 TLC388HCl, Mean (SD)
[14] = Day 8, dose group 9.0 mg/m^2 TLC388HCl, Mean (SD)
[15] = Day 8, dose group 20.0 mg/m^2 TLC388HCl, Mean (SD)
[16] = Day 8, dose group 30.0 mg/m^2 TLC388HCl, Mean (SD)
[17] = Day 8, dose group 35.0 mg/m^2 TLC388HCl, Mean (SD)
[18] = Day 8, dose group 40.0 mg/m^2 TLC388HCl, Mean (SD)
[19] = Day 8, dose group 50.0 mg/m^2 TLC388HCl, Mean (SD)
[20] = Day 8, dose group 60.0 mg/m^2 TLC388HCl, Mean (SD)
[21] = patients treated with 60 mg/m^2 of TLC388HCl (N = 6)

Method: A non-randomized phase I clinical trial was conducted at 4 institutions in the US and Taiwan.
Patients were included in this trial if they are over the age of 18, with advanced cancer and the ECOG performance status is 0 or 1. […] Patients were excluded from the study if they have previously received more than 3 regimens of chemotherapy, or if they have received chemotherapy or radiotherapy within 4 weeks of the trial recruitment.
Eligible patients were given the pharmaceutical composition of the present invention, comprising a mixture of TLC388HCl and mPEG2000-DSPE in a molar ratio of 1:0.7 to 1:0.9 (known as Lipotecan®). […] The pharmaceutical composition was administered as a 30-min IV infusion, on days 1, 8, and 15 of a 28-day cycle (i.e. 3 IV infusions per 28-day cycle).
Serum samples were collected from the patients for pharmacokinetic analysis on day 1, day 8 and day 15 of Cycles 1 and 2, at the following times:
Post IV infusion: (Day 1 and 8 of Cycle 1): 33 min; 40 min; 50 min; 1 h; 1 h 30 min; 2 h; 4 h and 8 h. Post IV infusion (Day 15 of Cycle 1 and Day 1, 8, and 15 of Cycle 2): 4 h. Patients were assessed every 8 weeks, after 2 cycles of treatments.
During the 2-cycle study period, the patients were examined regularly for the following outcomes: • Side effect/DLT; • The pK profiles of the (S,S) and (S,R) diastereomers of TLC388HCl, its 3 metabolites (TLC-U1, TLC-U2 and Topotecan) on day 1 and day 8 of the treatment cycle; and • Anti-cancer efficacy.

CCC1(OC(=O)C(C)ON=C2c3cc([N+](=O)[O-])cc([N+](=O)[O-])c3-c3c2cc([N+](=O)[O-])cc3[N+](=O)[O-])C(=O)OCc2c1cc1n(c2=O)Cc2cc3c(CN(C)C)c(O)ccc3nc2-1.Cl (stereo not drawn) [S,R TLC388HCl]
difference between PK profiles on Day 1 and Day 8: no significant difference | AUC0-t [1]: 1.646 ng·h/mL | Cmax [1]: 3.188 ng/mL | Tmax [1]: 0.606 (0.106) hr | t1/2 [1]: 2.603 (3.591) hr | AUC0-t [2]: 4.728 ng·h/mL | Cmax [2]: 2.743 ng/mL | Tmax [2]: 0.933 (0.936) hr | AUC0-t [3]: 1.564 ng·h/mL | Cmax [3]: 4.073 ng/mL | Tmax [3]: 0.467 (0.209) hr | AUC0-t [4]: 0.821 ng·h/mL | Cmax [4]: 2.196 ng/mL | Tmax [4]: 0.354 (0.209) hr | t1/2 [4]: 0.197 (0.218) hr | AUC0-t [5]: 8.671 ng·h/mL | Cmax [5]: 29.303 ng/mL | Tmax [5]: 0.250 (0.000) hr | t1/2 [5]: 2.828 (4.510) hr | AUC0-t [6]: 3.624 ng·h/mL | Cmax [6]: 12.930 ng/mL | Tmax [6]: 0.396 (0.292) hr | t1/2 [6]: 0.258 (0.271) hr | AUC0-t [7]: 138.61 ng·h/mL | Cmax [7]: 263.58 ng/mL | Tmax [7]: 0.709 (0.083) hr | t1/2 [7]: 3.030 (1.537) hr | AUC0-t [8]: 10.818 ng·h/mL | Cmax [8]: 28.259 ng/mL | Tmax [8]: 0.415 (0.152) hr | t1/2 [8]: 0.460 (0.772) hr | AUC0-t [9]: 14.387 ng·h/mL | Cmax [9]: 43.180 ng/mL | Tmax [9]: 0.403 (0.143) hr | t1/2 [9]: 0.483 (0.334) hr | AUC0-t [10]: 11.285 ng·h/mL | Cmax [10]: 63.194 ng/mL | Tmax [10]: 0.357 (0.148) hr | t1/2 [10]: 0.639 (0.425) hr | AUC0-t [11]: 0.449 ng·h/mL | Cmax [11]: 0.916 ng/mL | Tmax [11]: 0.489 (0.215) hr | t1/2 [11]: 0.087 h | AUC0-t [12]: 0.574 ng·h/mL | Cmax [12]: 1.811 ng/mL | Tmax [12]: 0.350 (0.173) hr | t1/2 [12]: 0.050 (0.008) hr | AUC0-t [13]: 2.190 ng·h/mL | Cmax [13]: 8.287 ng/mL | Tmax [13]: 0.467 (0.209) hr | t1/2 [13]: 0.072 h | AUC0-t [14]: 5.396 ng·h/mL | Cmax [14]: 3.325 ng/mL | Tmax [14]: 2.408 (3.729) hr | t1/2 [14]: 0.133 (0.084) hr | AUC0-t [15]: 4.707 ng·h/mL | Cmax [15]: 15.753 ng/mL | Tmax [15]: 0.328 (0.135) hr | t1/2 [15]: 0.115 (0.064) hr | AUC0-t [16]: 18.892 ng·h/mL | Cmax [16]: 38.413 ng/mL | Tmax [16]: 0.512 (0.240) hr | t1/2 [16]: 0.202 (0.242) hr | AUC0-t [17]: 139.26 ng·h/mL | Cmax [17]: 403.60 ng/mL | Tmax [17]: 0.621 (0.141) hr | t1/2 [17]: 3.329 (2.590) hr | AUC0-t [18]: 34.254 ng·h/mL | Cmax [18]: 76.660 ng/mL | Tmax [18]: 0.303 (0.113) hr | t1/2 [18]: 0.411 (0.676) hr | AUC0-t [19]: 39.251 ng·h/mL | Cmax [19]: 97.288 ng/mL | Tmax [19]: 0.297 (0.104) hr | t1/2 [19]: 0.764 (1.045) hr | AUC0-t [20]: 13.377 ng·h/mL | Cmax [20]: 47.340 ng/mL | Tmax [20]: 0.450 (0.115) hr | t1/2 [20]: 1.416 (1.169) hr | Dose-normalized AUClast [21]: 0.82 ± 1.92 nM*h/(mg/m^2) | Dose-normalized Cmax [21]: 1.63 ± 3.77 nM/(mg/m^2) | Tmax [21]: 0.47 ± 0.30 h | t1/2 [21]: 1.08 ± 1.77 h | half-life: a few minutes

CCC1(OC(=O)C(C)ON=C2c3cc([N+](=O)[O-])cc([N+](=O)[O-])c3-c3c2cc([N+](=O)[O-])cc3[N+](=O)[O-])C(=O)OCc2c1cc1n(c2=O)Cc2cc3c(CN(C)C)c(O)ccc3nc2-1.Cl (stereo not drawn) [S,S TLC388HCl]
difference between PK profiles on Day 1 and Day 8: no significant difference | AUC0-t [1]: 2.190 ng·h/mL | Cmax [1]: 4.492 ng/mL | Tmax [1]: 0.606 (0.106) hr | t1/2 [1]: 2.792 (3.856) hr | AUC0-t [2]: 6.136 ng·h/mL | Cmax [2]: 3.857 ng/mL | Tmax [2]: 0.933 (0.936) hr | AUC0-t [3]: 1.866 ng·h/mL | Cmax [3]: 5.763 ng/mL | Tmax [3]: 0.467 (0.209) hr | AUC0-t [4]: 1.141 ng·h/mL | Cmax [4]: 2.985 ng/mL | Tmax [4]: 0.429 (0.212) hr | t1/2 [4]: 0.074 (0.033) hr | AUC0-t [5]: 14.699 ng·h/mL | Cmax [5]: 51.193 ng/mL | Tmax [5]: 0.250 (0.000) hr | t1/2 [5]: 0.432 (0.260) hr | AUC0-t [6]: 5.227 ng·h/mL | Cmax [6]: 18.623 ng/mL | Tmax [6]: 0.454 (0.276) hr | t1/2 [6]: 0.160 (0.034) hr | AUC0-t [7]: 212.19 ng·h/mL | Cmax [7]: 417.03 ng/mL | Tmax [7]: 0.679 (0.116) hr | t1/2 [7]: 2.221 (0.789) hr | AUC0-t [8]: 17.287 ng·h/mL | Cmax [8]: 47.220 ng/mL | Tmax [8]: 0.415 (0.152) hr | t1/2 [8]: 0.457 (0.812) hr | AUC0-t [9]: 23.967 ng·h/mL | Cmax [9]: 76.840 ng/mL | Tmax [9]: 0.403 (0.143) hr | t1/2 [9]: 0.218 (0.075) hr | AUC0-t [10]: 18.196 ng·h/mL | Cmax [10]: 103.16 ng/mL | Tmax [10]: 0.357 (0.148) hr | t1/2 [10]: 0.546 (0.353) hr | AUC0-t [11]: 0.608 ng·h/mL | Cmax [11]: 1.297 ng/mL | Tmax [11]: 0.489 (0.215) hr | t1/2 [11]: 0.093 h | AUC0-t [12]: 0.852 ng·h/mL | Cmax [12]: 2.902 ng/mL | Tmax [12]: 0.350 (0.173) hr | AUC0-t [13]: 3.152 ng·h/mL | Cmax [13]: 12.160 ng/mL | Tmax [13]: 0.467 (0.209) hr | t1/2 [13]: 0.045 h | AUC0-t [14]: 7.000 ng·h/mL | Cmax [14]: 4.776 ng/mL | Tmax [14]: 2.408 (3.729) hr | t1/2 [14]: 0.195 h | AUC0-t [15]: 7.369 ng·h/mL | Cmax [15]: 24.533 ng/mL | Tmax [15]: 0.328 (0.135) hr | t1/2 [15]: 0.509 (0.731) hr | AUC0-t [16]: 28.454 ng·h/mL | Cmax [16]: 58.903 ng/mL | Tmax [16]: 0.587 (0.167) hr | t1/2 [16]: 0.114 (0.061) hr | AUC0-t [17]: 208.58 ng·h/mL | Cmax [17]: 616.50 ng/mL | Tmax [17]: 0.621 (0.141) hr | t1/2 [17]: 4.009 (1.684) hr | AUC0-t [18]: 58.170 ng·h/mL | Cmax [18]: 127.39 ng/mL | Tmax [18]: 0.303 (0.113) hr | t1/2 [18]: 0.429 (0.687) hr | AUC0-t [19]: 58.594 ng·h/mL | Cmax [19]: 150.12 ng/mL | Tmax [19]: 0.297 (0.104) hr | t1/2 [19]: 0.817 (1.200) hr | AUC0-t [20]: 24.500 ng·h/mL | Cmax [20]: 87.780 ng/mL | Tmax [20]: 0.403 (0.143) hr | t1/2 [20]: 0.971 (0.667) hr | Cmax and AUC compared with S,R-TLC388HCl (at all dose levels): higher than those of S,R-TLC388HCl | Dose-normalized AUClast [21]: 1.22 ± 2.87 nM*h/(mg/m^2) | Dose-normalized Cmax [21]: 2.60 ± 6.02 nM/(mg/m^2) | Tmax [21]: 0.47 ± 0.3 h | t1/2 [21]: 0.75 ± 1.18 h | half-life: a few minutes
